The source made the active and inactive calls. No rule for the calls is given here.
Molecular target: Influenza A virus M2 proton channel (A/TW/4845/1999 H1N1)
Experiment: M2 proton channel binding, NMR based, influenza A virus H1N1 strain (AID 1549)
Conditions: NMR binding screen, M2 protein

SMILES	Kd
CN1CCN(CC(=O)Nc2ccccc2)CC1	> 4 mM (inactive)
O=C(O)c1cnc2sc3ccccc3n2c1=O	> 4 mM (inactive)
Cc1cc(C)cc(C(=O)n2cnnc2N)c1	> 4 mM (inactive)
CCSc1nnc2[nH]c(=O)cc(C)n12	> 4 mM (inactive)
O=C1CC(=O)N(c2ccccc2)C(=O)N1	> 4 mM (inactive)
Cc1ccc(N2C(=O)CC(Sc3ncn[nH]3)C2=O)cc1 (stereo unspecified)	> 4 mM (inactive)
Nc1ccc2sccc2c1	> 4 mM (inactive)
CNCc1ccccc1	> 4 mM (inactive)
CN1CCCC1C(=O)O (stereo unspecified)	> 4 mM (inactive)
Cc1nn(-c2ccccc2)c(Cl)c1C(N)=O	> 4 mM (inactive)
CN(C)c1nc(N2CCOCC2)c2cnn(C)c2n1	> 4 mM (inactive)
Cc1cc(-c2ccccc2)nc2cc(C(N)=O)nn12	> 4 mM (inactive)
Cn1ccnc1SCc1cc(=O)[nH]c2ccccc12	> 4 mM (inactive)
O=C(O)CSc1cccc2cccnc12	> 4 mM (inactive)
CC1(C(=O)O)CC2C=CC1C2 (stereo unspecified)	> 4 mM (inactive)
CC1=NN(c2ccc(C)cc2)C(=O)C1	> 4 mM (inactive)
O=c1[nH]c(O)c(C=NCc2cccs2)c(=O)[nH]1	> 4 mM (inactive)
Nc1cc(N)nc(SCc2cccnc2)n1	> 4 mM (inactive)
O=C(NN1C(=O)c2ccccc2C1=O)c1cccs1	> 4 mM (inactive)
O=CN1CCN(C2CC(=O)N(c3ccccc3)C2=O)CC1 (stereo unspecified)	> 4 mM (inactive)
OCC1=Cc2ccccc2OC1	> 4 mM (inactive)
NS(=O)(=O)c1ccc(N=Cc2ccc[nH]2)cc1	> 4 mM (inactive)
Oc1ccc2c(c1)OCO2	> 4 mM (inactive)
COc1ccc(/C=C/C(=O)O)cc1OC	> 4 mM (inactive)
COC(=O)Nc1ccc2ncn(C)c(=O)c2c1	> 4 mM (inactive)
NC(=NCCC[C@H](N)C(=O)O)NC(CCC(=O)O)C(=O)O (stereo partly specified)	> 4 mM (inactive)

SMILES	Kd
Nc1nc2ccc(S(N)(=O)=O)cc2s1	> 4 mM (inactive)
COc1cc(OC)c2c(OC)c(-c3ccc4c(c3)OCO4)c(=O)oc2c1	> 4 mM (inactive)
Brc1cccc(-c2nnco2)c1	> 4 mM (inactive)
O=[N+]([O-])c1c[n+]([O-])n(-c2ccccc2)n1	> 4 mM (inactive)
CCOC(=O)C1C(C=C(C)C)C1(C)C (stereo unspecified)	> 4 mM (inactive)
CNCc1ccco1	> 4 mM (inactive)
Cc1nc2cc(Cl)ccc2n1CCO	> 4 mM (inactive)
O=c1[nH]cc(S(=O)(=O)N2CCc3ccccc32)c(=O)[nH]1	> 4 mM (inactive)
Cc1nc(SCC(=O)c2c[nH]c3ccccc23)n[nH]1	> 4 mM (inactive)
CC(=O)C1=C(O)C(=O)NC1c1ccccc1 (stereo unspecified)	> 4 mM (inactive)
CSc1nc(NC(C)C)nc(N2CCOCC2)n1	> 4 mM (inactive)
CC(=O)n1c(N)nc2ccccc21	> 4 mM (inactive)
CC(=O)c1cccc(NC(=O)C=C(C)C)c1	> 4 mM (inactive)
Cc1nn(C)c(C)c1NC(=S)NC1CCCC1	> 4 mM (inactive)
Cc1oc(-c2ccccc2)nc1CCO	> 4 mM (inactive)
CC(C)NC(=S)N1CCN(S(C)(=O)=O)CC1	> 4 mM (inactive)
CC(=O)Nc1ccc(Oc2nc(C)cc(C)n2)cc1	> 4 mM (inactive)
NS(=O)(=O)c1ccc(N=Cc2cccs2)cc1	> 4 mM (inactive)
COc1ccccc1NC(=O)C1CCC(=O)N1 (stereo unspecified)	> 4 mM (inactive)
O=C1CCC(=O)N1c1cccc([N+](=O)[O-])c1	> 4 mM (inactive)
O=C(O)C1CC2CC1CCC2O (stereo unspecified)	> 4 mM (inactive)
S=C(NCC1CCCO1)NC1CC1 (stereo unspecified)	> 4 mM (inactive)
O=c1c(-c2cccs2)[n+]([O-])c2ccccc2n1O	> 4 mM (inactive)
COC(=O)CSc1n[nH]c(N)n1	> 4 mM (inactive)
CC(=O)OC1CC[C@@]2(C)C(CCC3C2CC[C@]2(C)C(C4=CC(=O)OC4)C(OC(C)=O)CC32O)C1 (stereo partly specified)	> 4 mM (inactive)
Cc1cccc(-c2nnc(-c3ccc(N)cc3)o2)c1	> 4 mM (inactive)

SMILES	Kd
O=C(NCc1ccccn1)c1ccccc1Cl	> 4 mM (inactive)
Cc1ccc2cc(N)ccc2n1	> 4 mM (inactive)
O=c1c(O)c(-c2ccccc2)oc2cc(O)ccc12	> 4 mM (inactive)
NC(=O)CSc1ccc2nnc(-c3cccs3)n2n1	> 4 mM (inactive)
CC(=O)c1cc(-c2nc3ccccc3n2C)n(C)c1	> 4 mM (inactive)
COc1cc(OC)c2c(c1Cl)OC1(C2=O)C(O)=CC(=O)CC1C (stereo unspecified)	> 4 mM (inactive)
O=C(Nc1cccnc1)c1cccs1	> 4 mM (inactive)
Nc1ccc2nsnc2c1	> 4 mM (inactive)
Nc1nc(NCc2ccco2)nn1-c1ccccc1	> 4 mM (inactive)
COc1ccc([C@@H]2CC(=O)c3c(O)cc(O)cc3O2)cc1O	> 4 mM (inactive)
CC1(C)Cn2c(nnc2-c2ccccc2)S1	> 4 mM (inactive)
COc1ccc2c(c1)OC/C(=C/c1ccc(OC)c(OC)c1)C2=O	> 4 mM (inactive)
O=C(NC1=NCCS1)c1csc2ccccc12	> 4 mM (inactive)
O=C(NCc1ccccc1)c1ccc[n+]([O-])c1	> 4 mM (inactive)
N#C/C(=C\c1ccc[nH]1)S(=O)(=O)c1ccccc1	> 4 mM (inactive)
COc1ccccc1-c1n[nH]c(=O)o1	> 4 mM (inactive)
Cc1nc2ccccc2c(=O)n1N1C(=O)CCCC1=O	> 4 mM (inactive)
O=C(O)CCN1CCOCC1	> 4 mM (inactive)
CS(=O)(=O)c1nncn1-c1ccccc1	> 4 mM (inactive)
CCOC(=O)c1ccc2c(c1)nnn2C	> 4 mM (inactive)
O=C(c1ccco1)N1CCn2c1nc1ccccc12	> 4 mM (inactive)
c1ccc(CN2CCC3(CC2)Nc2ccccc2CO3)cc1	> 4 mM (inactive)
Cc1cc(C(=O)Nn2cnnc2)cs1	> 4 mM (inactive)
O=[N+]([O-])c1cccc(-c2nnco2)c1	> 4 mM (inactive)
COc1ccc(/C=C2/SC(N)=NC2=O)c(OC)c1	> 4 mM (inactive)
COc1c2c(cc3cc[n+](C)cc13)OCO2	> 4 mM (inactive)

SMILES	Kd
CCCCCCCCCCCCCCCCCCOCC(O)CO (stereo unspecified)	> 4 mM (inactive)
CC(=O)CC1(O)C(=O)Nc2ccccc21 (stereo unspecified)	> 4 mM (inactive)
c1cncc(Nc2nc(-c3ccncc3)cs2)c1	> 4 mM (inactive)
NS(=O)(=O)c1ccc(NC(=O)/C=C\C(=O)O)cc1	> 4 mM (inactive)
Cc1nn2c(nc1=O)SCC(c1ccccc1)=N2	> 4 mM (inactive)
Nc1nnc(-c2ccncc2)s1	> 4 mM (inactive)
COC(=O)CSc1nc(N)cc(=O)[nH]1	> 4 mM (inactive)
COc1cccc(Oc2ccc(N)cn2)c1	> 4 mM (inactive)
COc1ccc(C2(C)NC(=O)NC2=O)cc1 (stereo unspecified)	> 4 mM (inactive)
CN1CCN(C(=O)c2ccccc2C(=O)O)CC1	> 4 mM (inactive)
CC12CNCC(C)(CNC1)C2O (stereo unspecified)	> 4 mM (inactive)
Cc1cc(=O)c2c(O)c(C)c(O)cc2o1	> 4 mM (inactive)
CC(C)CCCC(C)[C@H]1CCC2C3CC[C@@H]4C[C@H](O)CC[C@]4(C)C3CC[C@@]21C (stereo partly specified)	> 4 mM (inactive)
O=C1CCC(=O)N1CNc1ccccc1	> 4 mM (inactive)
Cc1ccc(-c2nc(-c3cccnc3)no2)cc1	> 4 mM (inactive)
O=c1[nH]c(=S)[nH]c2c1CCC2	> 4 mM (inactive)
O=C1CCc2ccccc2CN1	> 4 mM (inactive)
NCCCCNCCCN	> 4 mM (inactive)
COc1ccccc1NC(C)=O	> 4 mM (inactive)
Cc1cc(=O)[nH]c(NCc2cccnc2)n1	> 4 mM (inactive)
Cn1c(SCC(N)=O)nc2ccccc2c1=O	> 4 mM (inactive)
CS(=O)(=O)NN=C1CCCCC1	> 4 mM (inactive)
O=C(O)c1ccc(CN2CCCCC2)o1	> 4 mM (inactive)
COc1c(O)cc2oc3cc(O)c(CC=C(C)C)c(O)c3c(=O)c2c1CC=C(C)C	> 4 mM (inactive)
COc1ccc(-c2coc3cc(O)ccc3c2=O)c(OC)c1	> 4 mM (inactive)
CC(C)(C#N)O[C@@H]1O[C@H](CO)[C@@H](O)[C@H](O)[C@H]1O	> 4 mM (inactive)

SMILES	Kd
Cc1nc2sccn2c1C(=O)O	> 4 mM (inactive)
CC(=O)Nc1cc(C(F)(F)F)ccc1N1CCOCC1	> 4 mM (inactive)
OC1CNCc2cc3c(cc21)OCCO3 (stereo unspecified)	> 4 mM (inactive)
NC(=O)COc1cccc2cccnc12	> 4 mM (inactive)
NC[C@H]1O[C@H](O[C@H]2[C@H](O)[C@@H](O[C@H]3O[C@H](CO)[C@@H](O)[C@H](N)[C@H]3O)[C@H](N)C[C@@H]2N)[C@H](N)[C@@H](O)[C@@H]1O	> 4 mM (inactive)
Clc1ccccc1-c1nc(-c2cccnc2)no1	> 4 mM (inactive)
COc1ccc2c(c1)O[C@@H]1COc3cc(OC)c(OC)cc3[C@@H]1C2=O	> 4 mM (inactive)
Cc1cc(=O)n2nc(-c3ccccc3)sc2n1	> 4 mM (inactive)
O=C(O)C1=Cc2ccccc2OC1	> 4 mM (inactive)
NNC(=O)c1ccccc1-n1cccc1	> 4 mM (inactive)
CC(=O)N/N=C(\C)c1cccc(N)c1	> 4 mM (inactive)
COc1ccccc1NC(=O)CCC(=O)O	> 4 mM (inactive)
O=C(Nc1ccccc1CO)c1ccccc1F	> 4 mM (inactive)
CC(=O)CC1CCCCN1 (stereo unspecified)	> 4 mM (inactive)
O=C(Nc1cccc(Cl)c1)c1ccncc1	> 4 mM (inactive)
O=C(CS(=O)(=O)c1ccccc1)Nc1nccs1	> 4 mM (inactive)
Cc1nn2c3ccccc3nc2n(Cc2ccccc2)c1=O	> 4 mM (inactive)
CC(C)=CCC1=C(O)c2ccccc2C(=O)C1=O	> 4 mM (inactive)
Cc1nn(C)c2sc(CO)cc12	> 4 mM (inactive)
Cc1ccc(C(=O)Nn2cnnc2)c(Cl)c1	> 4 mM (inactive)
Oc1ccc(-n2cncn2)cc1	> 4 mM (inactive)
NC(=O)C1CCN(CN2C(=O)c3ccccc3C2=O)CC1	> 4 mM (inactive)

— PubChem BioAssay AID1549 (Sanford-Burnham Center for Chemical Genomics, 2009)
